From patent US9708311B2, “Benzimidazole derivatives as EP4 antagonists” (BAYER PHARMA AKTIENGESELLSCHAFT, priority 2012, dated 2017)

Biological target: human EP4 receptor (Homo sapiens (Human), UniProt P35408)
Test: Test for antagonism of the human EP4 receptor signal (cAMP HTRF)
Type: cell-based
Details: cells expressing hEP4, PGE2 at EC80 (0.4 nM), cAMP TR-FRET; read-out: Antagonism hEP4 IC50
Description: The binding of the agonist prostaglandin E2 (PGE2) to the EP4 subtype of human hPGE2-R (hEP4-R) induces the activation of membrane-bound adenylate cyclases and thus the formation of cAMP. In the presence of the phosphodiesterase inhibitor IBMX, this cAMP accumulates intracellularly and is employed in a competitive detection procedure after cell lysis. In this procedure, it competes with a fluorescence-labelled cAMP (cAMP-d2) for binding to an Eu cryptate-labelled anti-cAMP antibody. In the absence of cellular cAMP, a complex is formed between the Eu cryptate-labelled anti-cAMP antibody and the cAMP-d2 molecule, which after excitation at 337 nm makes possible an energy transfer based on FRET (fluorescence resonance energy transfer) to the cAMP-d2 tracer and leads to a long-lasting fluorescence signal (emission at 665 and 620 nm). This signal is time-resolved, i.e. measured in a suitable measuring apparatus after decay of the background fluorescence (time resolved; TR-FRET). The wave ratio determination (emission 665 nm/emission 620 nm*10000) moreover makes it possible to standardize individual measurement differences in the added amounts of the detection reagents.
By means of prostaglandin E2 administration and increase in the intracellular cAMP, a lowering of the FRET signal occurs, which in the case of an antagonistic substance action increases again.
A further 20 min at room temperature later, the cell lysate is measured according to the manufacturer's instructions in a TR-FRET-suitable measuring apparatus (compare cAMP HTRF assay kit: Cisbio International 62AM6PEJ high range)

human EP4 receptor, sequence (P35408 whole entry): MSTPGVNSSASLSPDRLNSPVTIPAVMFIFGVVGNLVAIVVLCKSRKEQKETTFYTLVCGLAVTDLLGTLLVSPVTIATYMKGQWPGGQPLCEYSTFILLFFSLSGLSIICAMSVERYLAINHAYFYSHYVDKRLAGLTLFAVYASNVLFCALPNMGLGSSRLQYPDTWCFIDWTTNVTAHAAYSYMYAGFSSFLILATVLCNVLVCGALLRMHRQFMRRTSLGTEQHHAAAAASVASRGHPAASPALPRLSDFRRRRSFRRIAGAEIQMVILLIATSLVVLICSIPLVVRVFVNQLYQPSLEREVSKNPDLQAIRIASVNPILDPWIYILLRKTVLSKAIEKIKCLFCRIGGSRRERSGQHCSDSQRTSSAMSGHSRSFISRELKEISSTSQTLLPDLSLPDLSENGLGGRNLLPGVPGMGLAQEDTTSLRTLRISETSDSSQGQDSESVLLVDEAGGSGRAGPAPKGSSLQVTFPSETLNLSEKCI

Row | Structure (SMILES) | IC50 [nM]
1 | CCn1c2ccccc2c2cc(-c3nc4cc(C(=O)NS(=O)(=O)C(C)(C)C)ccc4n3CCOC)ccc21 [Example 39, N-(tert-Butylsulphonyl)-2-(9-ethyl-9H-carbazol-3-yl)-1-(2-methoxyethyl)-1H-benzimidazole-5-carboxamide] | 768
2 | CCn1c2ccccc2c2cc(-c3nc4cc(C(=O)N5CC(O)C5)ccc4n3CC3CC3)ccc21 [Example 23, [1-(Cyclopropylmethyl)-2-(9-ethyl-9H-carbazol-3-yl)-1H-benzimidazol-5-yl](3-hydroxyazetidin-1-yl)methanone] | 143
3 | CCn1c2ccccc2c2cc(-c3nc4cc(C(=O)NC)ccc4n3CC3CC3)ccc21 [Example 24, 1-(Cyclopropylmethyl)-2-(9-ethyl-9H-carbazol-3-yl)-N-methyl-1H-benzimidazole-5-carboxamide] | 338
4 | CCn1c2ccccc2c2cc(-c3nc4cc(C(=O)NS(=O)(=O)c5ccc6ccccc6c5)ccc4n3CCOC)ccc21 [Example 51, 2-(9-Ethyl-9H-carbazol-3-yl)-1-(2-methoxyethyl)-N-(2-naphthylsulphonyl)-1H-benzimidazole-5-carboxamide] | 95.5
5 | CCn1c2ccccc2c2cc(-c3nc4cc(C(=O)O)ccc4n3CCN3CCCC3)ccc21 [Example 38, 2-(9-Ethyl-9H-carbazol-3-yl)-1-[2-(pyrrolidin-1-yl)ethyl]-1H-benzimidazole-5-carboxylic acid] | 742
6 | CCn1c2ccc(-c3nc4cc(C(=O)O)ccc4n3CCOC)cc2c2cccc(F)c21 [Example 12, 2-(9-Ethyl-8-fluoro-9H-carbazol-3-yl)-1-(2-methoxyethyl)-1H-benzimidazole-5-carboxylic acid] | 10.2
7 | CCn1c2ccccc2c2nc(-c3nc4cc(C(=O)O)ccc4n3CCOC)ccc21 [Example 42, 2-(5-Ethyl-5H-pyrido[3,2-b]indol-2-yl)-1-(2-methoxyethyl)-1H-benzimidazole-5-carboxylic acid] | 239
8 | CCn1c2ccccc2c2cc(-c3nc4cc(C(=O)OC)ccc4n3CCOC)ccc21 [Example 3, Methyl 2-(9-ethyl-9H-carbazol-3-yl)-1-(2-methoxyethyl)-1H-benzimidazole-5-carboxylate] | 175
9 | CCn1c2ccccc2c2cc(-c3nc4cc(C(=O)N(C)C)ccc4n3CC3CC3)ccc21 [Example 25, 1-(Cyclopropylmethyl)-2-(9-ethyl-9H-carbazol-3-yl)-N,N-dimethyl-1H-benzimidazole-5-carboxamide] | 86.3
10 | CCn1c2ccccc2c2cc(-c3nc4cc(C(=O)O)ccc4n3CC3CC3)ccc21 [Example 6, 1-(Cyclopropylmethyl)-2-(9-ethyl-9H-carbazol-3-yl)-1H-benzimidazole-5-carboxylic acid] | 14.4
11 | COCCn1c2ccccc2c2cc(-c3nc4cc(C(=O)O)ccc4n3CC3CC3)ccc21 [Example 13, 1-(Cyclopropylmethyl)-2-[9-(2-methoxyethyl)-9H-carbazol-3-yl]-1H-benzimidazole-5-carboxylic acid] | 18
12 | CCn1c2ccc(OC)cc2c2cc(-c3nc4cc(C(=O)O)ccc4n3CC3CC3)ccc21 [Example 43, 1-(Cyclopropylmethyl)-2-(9-ethyl-6-methoxy-9H-carbazol-3-yl)-1H-benzimidazole-5-carboxylic acid] | 54.6
13 | CCn1c2ccccc2c2cc(-c3nc4cc(-c5noc(=O)[nH]5)ccc4n3CCOC)ccc21 [Example 46, 3-[2-(9-Ethyl-9H-carbazol-3-yl)-1-(2-methoxyethyl)-1H-benzimidazol-5-yl]-1,2,4-oxadiazol-5(4H)-one] | 12.4

Results, then the compound that gave them:

Row | IC50 [nM] | Structure (SMILES)
14 | 117 | CCn1c2ccccc2c2cc(-c3nc4cc(C(=O)NS(=O)(=O)c5ccc(C)cn5)ccc4n3CCOC)ccc21 [Example 63, 2-(9-Ethyl-9H-carbazol-3-yl)-1-(2-methoxyethyl)-N-[(5-methylpyridin-2-yl)sulphonyl]-1H-benzimidazole-5-carboxamide]
15 | 480 | CCn1c2ccccc2c2cc(-c3nc4cc(C(=O)O)ccc4n3CC3CC3)nc(C)c21 [Example 131, 1-(Cyclopropylmethyl)-2-(9-ethyl-1-methyl-9H-beta-carbolin-3-yl)-1H-benzimidazole-5-carboxylic acid]
16 | 8000 | CCOC(=O)c1ccc2c(c1)nc(-c1ccc3c(c1)c1ccccc1n3CC)n2C(C)C [Example 92, Ethyl 2-(9-ethyl-9H-carbazol-3-yl)-1-isopropyl-1H-benzimidazole-5-carboxylate]
17 | 21.4 | CCn1c2ccccc2c2cc(-c3nc4cc(C(=O)NS(=O)(=O)c5ccc(C)cc5)ccc4n3CCN(C)C)ccc21 [Example 75, 1-[2-(Dimethylamino)ethyl]-2-(9-ethyl-9H-carbazol-3-yl)-N-[(4-methylphenyl)sulphonyl]-1H-benzimidazole-5-carboxamide]
18 | 238 | CCn1c2ccccc2c2cc(-c3nc4cc(C(=O)NS(=O)(=O)CCc5cccc(Cl)c5)ccc4n3CCOC)ccc21 [Example 56, N-{[2-(3-Chlorophenyl)ethyl]sulphonyl}-2-(9-ethyl-9H-carbazol-3-yl)-1-(2-methoxyethyl)-1H-benzimidazole-5-carboxamide]
19 | 100 | CCn1c2ccccc2c2cc(-c3nc4cc(C(=O)O)ccc4n3CC3CC3(C)C)ccc21 (centres unmarked) [Example 121, 1-[(2,2-Dimethylcyclopropyl)methyl]-2-(9-ethyl-9H-carbazol-3-yl)-1H-benzimidazole-5-carboxylic acid]
20 | 35.3 | CCn1c2ccccc2c2cc(-c3nc4cc(C(=O)NS(=O)(=O)c5ccccc5C)ccc4n3CCOC)ccc21 [Example 53, 2-(9-Ethyl-9H-carbazol-3-yl)-1-(2-methoxyethyl)-N-[(2-methylphenyl)sulphonyl]-1H-benzimidazole-5-carboxamide]
21 | 133 | CCn1c2ccccc2c2cc(-c3nc4cc(C(=O)NS(=O)(=O)Cc5ccccc5OC(F)(F)F)ccc4n3CCOC)ccc21 [Example 65, 2-(9-Ethyl-9H-carbazol-3-yl)-1-(2-methoxyethyl)-N-{[2-(trifluoromethoxy)benzyl]-sulphonyl}-1H-benzimidazole-5-carboxamide]
22 | 15.3 | CCn1c2ccc(C)cc2c2cc(-c3nc4c(C)c(C(=O)O)ccc4n3CCOC)ccc21 [Example 141, 2-(9-Ethyl-6-methyl-9H-carbazol-3-yl)-1-(2-methoxyethyl)-4-methyl-1H-benzimidazole-5-carboxylic acid]
23 | 41.3 | CCn1c2ccccc2c2cc(-c3nc4cc(C(=O)N5CCCC5)ccc4n3CCOC)ccc21 [Example 76, [2-(9-Ethyl-9H-carbazol-3-yl)-1-(2-methoxyethyl)-1H-benzimidazol-5-yl](pyrrolidin-1-yl)-methanone]
24 | 2830 | CCn1c2ccccc2c2cc(-c3nc4cc(C(=O)O)c(OC)cc4n3CC3CC3)ccc21 [Example 102, 1-(Cyclopropylmethyl)-2-(9-ethyl-9H-carbazol-3-yl)-6-methoxy-1H-benzimidazole-5-carboxylic acid]
25 | 872 | CCOC(=O)c1ccc2c(c1)nc(-c1ccc3c(c1)c1ccccc1n3CC)n2CCN(C)C [Example 71, Ethyl-1-[2-(dimethylamino)ethyl]-2-(9-ethyl-9H-carbazol-3-yl)-1H-benzimidazole-5-carboxylate]
26 | 178 | CCn1c2ccncc2c2cc(-c3nc4cc(C(=O)O)ccc4n3CC3CC3)ccc21 [Example 109, 1-(Cyclopropylmethyl)-2-(5-ethyl-5H-pyrido[4,3-b]indol-8-yl)-1H-benzimidazole-5-carboxylic acid]
